Source: article PMC7855981, “Rho-Kinase 1/2 Inhibition Prevents Transforming Growth Factor-β-Induced Effects on Pulmonary Remodeling and Repair” (Frontiers in Pharmacology, 2021)

How the values were obtained:
[1] = molecular target: T1, ROCK1 (Homo sapiens, UniProt Q13464); assay: ADP-Glo kinase assay with […] ATP; type: biochemical
T1 construct: GST-tagged 1–535 human ROCK1

[2] = molecular target: T2, ROCK2 (Homo sapiens, UniProt O75116); assay: ADP-Glo kinase assay with […] ATP; also KINOMEscan competition at […] ([…] vs CTRL); type: biochemical
T2 construct: GST-tagged 1–552 human ROCK2
T2 sequence (O75116 1-552): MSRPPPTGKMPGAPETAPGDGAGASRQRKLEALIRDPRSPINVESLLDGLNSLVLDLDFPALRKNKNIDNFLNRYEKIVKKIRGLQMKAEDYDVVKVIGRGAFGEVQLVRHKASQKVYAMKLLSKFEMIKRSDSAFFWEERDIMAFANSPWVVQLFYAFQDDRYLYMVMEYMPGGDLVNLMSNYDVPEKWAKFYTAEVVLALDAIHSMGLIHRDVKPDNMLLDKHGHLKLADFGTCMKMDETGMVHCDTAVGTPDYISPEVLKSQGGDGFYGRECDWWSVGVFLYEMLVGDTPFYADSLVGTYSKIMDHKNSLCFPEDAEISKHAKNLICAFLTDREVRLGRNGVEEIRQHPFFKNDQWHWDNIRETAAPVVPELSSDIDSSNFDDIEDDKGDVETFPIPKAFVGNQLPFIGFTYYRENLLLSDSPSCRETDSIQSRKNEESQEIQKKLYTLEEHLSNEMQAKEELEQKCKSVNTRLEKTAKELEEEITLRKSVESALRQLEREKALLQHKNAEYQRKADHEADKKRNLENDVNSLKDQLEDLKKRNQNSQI

[3] = molecular target: T1, ROCK1; assay: ADP-Glo kinase assay with […] ATP; also KINOMEscan competition at […] ([…] CTRL); type: biochemical
[4] = molecular target: VRK2 (Homo sapiens, UniProt Q86Y07); assay: KINOMEscan competition binding, single concentration […] ([…] of control); conditions: read-out: % CTRL at 100 nM
Sequence of VRK2 (Q86Y07 whole entry): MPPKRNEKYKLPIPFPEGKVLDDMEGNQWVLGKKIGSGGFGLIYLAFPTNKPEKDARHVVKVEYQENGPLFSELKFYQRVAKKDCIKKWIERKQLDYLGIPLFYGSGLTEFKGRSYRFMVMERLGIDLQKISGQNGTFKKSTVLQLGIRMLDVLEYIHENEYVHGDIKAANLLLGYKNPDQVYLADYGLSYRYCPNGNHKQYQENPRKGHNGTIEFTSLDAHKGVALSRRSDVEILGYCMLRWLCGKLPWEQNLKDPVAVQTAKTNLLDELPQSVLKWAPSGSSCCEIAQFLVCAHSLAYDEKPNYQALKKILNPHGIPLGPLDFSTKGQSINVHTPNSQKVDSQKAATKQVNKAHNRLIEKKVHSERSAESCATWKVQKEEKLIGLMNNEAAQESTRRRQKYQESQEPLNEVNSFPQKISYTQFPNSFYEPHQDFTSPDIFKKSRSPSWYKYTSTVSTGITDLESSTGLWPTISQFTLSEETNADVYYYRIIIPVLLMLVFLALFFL

[5] = molecular target: T2, ROCK2; assay: ADP-Glo kinase assay with […] ATP; also KINOMEscan competition at […] ([…] CTRL); type: biochemical

T1 sequence (Q13464 1-535): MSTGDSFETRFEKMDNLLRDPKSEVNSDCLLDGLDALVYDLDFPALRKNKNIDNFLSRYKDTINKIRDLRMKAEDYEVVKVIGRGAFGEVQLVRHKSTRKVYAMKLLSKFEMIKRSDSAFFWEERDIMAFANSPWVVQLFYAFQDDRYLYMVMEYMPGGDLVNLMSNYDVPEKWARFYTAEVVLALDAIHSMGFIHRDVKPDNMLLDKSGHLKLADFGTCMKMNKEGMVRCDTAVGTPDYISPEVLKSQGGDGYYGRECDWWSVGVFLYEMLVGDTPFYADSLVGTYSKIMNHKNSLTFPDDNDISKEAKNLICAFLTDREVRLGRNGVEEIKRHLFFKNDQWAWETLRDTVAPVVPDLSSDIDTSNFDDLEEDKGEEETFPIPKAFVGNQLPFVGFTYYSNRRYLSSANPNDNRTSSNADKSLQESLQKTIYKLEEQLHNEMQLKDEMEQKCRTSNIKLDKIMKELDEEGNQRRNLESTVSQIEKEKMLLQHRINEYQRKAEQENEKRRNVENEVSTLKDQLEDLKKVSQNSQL

| IC50 [1] [nM] | IC50 [2] [nM] | IC50 [3] [nM] | remaining binding at 0.1 µM [4] [%] | IC50 [5] [nM] | SMILES |
| --- | --- | --- | --- | --- | --- |
| 341 ± 38 | 6.1 ± 1.4 | – | – | – | Cn1cc(C(=O)Nc2cccc(-c3nnc(Nc4ccc5[nH]ncc5c4Cl)s3)c2)cn1 [A11, N-(3-(5-((4-chloro-1H-indazol-5-yl)amino)-1,3,4-thiadiazol-2-yl)phenyl)-1-methyl-1H-pyrazole-4-carboxamide] |
| – | – | 2.9 ± 0.5 | 9.3 | 4 ± 0.6 | CCCN[C@H]1CCc2nc(NC(=O)c3cccc([C@@H](C)NC(=O)c4ccc(OC)c(OC)c4)c3)sc2C1 [compound 31, 3,4-dimethoxy-N-((R)-1-(3 - (((S) - 6 - (propylamino) - 4,5,6, 7 tetrahydrobenzo [d]thiazol-2-yl)carbamoyl)phenyl)ethyl) benzamide] |
